Experimental data as given in patent publication US20080234345A1, “METHOD FOR REDUCING OR ALLEVIATING INFLAMMATION IN THE DIGESTIVE TRACT” (Gene Logic Inc., priority 2006, published 2008).

Assays:
[1] = system: DSS-induced colitis in Balb/c mice; experiment: DSS-induced colitis in Balb/c mice (Example 7); assay type: in vivo; conditions: s.c. b.i.d., GL1001 300 mg/kg, sulfasalazine 150 mg/kg
Method: A study was designed with six groups of Balb/c mice: naïve control, DSS followed by vehicle, DSS followed by GL1001 30 mg/kg/day, DSS followed by GL1001 100 mg/kg/day, DSS followed by GL1001 300 mg/kg/day, and DSS followed by sulfasalazine 150 mg/kg/day. Administration of DSS was via drinking water, from day 1 to day 6 of the study. […] Administration of vehicle, GL1001 and sulfasalazine was subcutaneous, twice daily, from day 6 until termination of the study (day 16).
Body weight of each animal was measured at days 1, 3 and 5 (pre-initiation of GL1001 or sulfasalazine treatment) and at days 7, 9, 11 and 13 (post-initiation of GL1001 or sulfasalazine treatment). On these same days, disease activity measurements were recorded, including: • (a) rectal prolapse (0=no prolapse, 1=partial prolapse, 2=moderate prolapse, 3=full prolapse); • (b) stool consistency (0=solid pellet, 1=semi-solid, 2=soft stool, 3=diarrhea); and • (c) fecal occult blood (0=no blood present, 1=occult blood, 2=gross blood).
At termination of the study, colon length was determined and histological analysis was conducted as in Example 6.

UC = conditions: cited from earlier work
NF-κB = conditions: in CD; Guidi et al. (2005); cited from earlier work
CD = conditions: cited from earlier work

For `O=C(O)c1cc(/N=N/c2ccc(S(=O)(=O)Nc3ccccn3)cc2)ccc1O` [sulfasalazine, reference compound], the fecal occult blood ([1]; day 7) was “reduces”, the stool consistency ([1]; day 7) was “No significant effect” and the percentage weight loss ([1]; day 9) was “No significant effect”. The rectal prolapse ([1]; day 9) was “reduces”, the “distal colon crypt score” value [1] was “reduces” and the “distal colon inflammation score” value [1] was “reduces”. For the same molecule, the “distal colon total histopathology score” value [1] was “reduces” and the “reduction in colon length” value [1] was “inhibits reduction”.

For “Infliximab: anti-TNFα monoclonal antibody”, the response rates (UC) is listed as 50-70%, the NF-κB activity (NF-κB) is listed as “decrease” and the “induction of remission rate” value (CD; CD, after a single dose) is listed as 50%. The response rate (CD; CD, after a single dose) was 80%, the “fistula responds (closes), patients” value (CD; fistulizing CD) was 68% and the “patients who develop an abscess” value (CD; in vivo) was 12%.
